Read-outs that look alike come from different tables or passages of the source.
What was measured:
[1] = tested on: Aβ peptide production in rat primary neuronal culture; experiment: In vitro cellular assay: quantification of Aβ peptide in culture of neurons from rat fetus brain; assay type: cell-based, Wistar rat; conditions: Primary cortical neuron
Procedure: Quantification of Aβ Peptide in Culture of Neurons from Rat Fetus Brain
Primary neuronal cultures were prepared from the cerebral cortex of embryonic day 18 Wistar rats (Charles River, UK). Specifically, the embryos were aseptically removed from pregnant rats under ether anesthesia. The brain was isolated from the embryo and immersed in HBSS (Sigma Aldrich #H9269) containing 10 mM HEPES (Gibco #15630-056). The cerebral cortex was collected from the isolated brain under a stereoscopic microscope. The cerebral cortex fragments collected were enzymatically treated in an enzyme solution containing 0.05% trypsin-EDTA solution (GIBCO, #25300) at 37° C. for 20 minutes to disperse the cells. The cells were then washed twice and then gently resuspended in Neurobasal medium (Gibco #21103) supplemented with 2% B27 supplement (GIBCO #17504-044), 0.5 mM L-glutamine (GIBCO #25030), 1×N2 (GIBCO #17502-048), 100 μg/ml Pen/Strep (GIBCO 15140-122) and 5% heat inactivated FCS (PAA #A15-701). The cell dispersion was filtered through a 40-μm nylon mesh (BD Falcon #352340) to remove the remaining cell mass, and thus a neuronal cell suspension was obtained. The neuronal cell suspension was diluted with the medium above and then plated in a volume of 100 μL/well at an initial cell density of 3.25×10^5 cells/ml in poly-D-lysine coated 96-well culture plate (Greiner #655940). The plated cells were cultured in the culture plate at 37° C. in 5% CO2-95% air for 24 hrs. The total amount of the medium was replaced with ‘assay Neurobasal medium’ (as above excluding heat inactivated FCS), and then the cells were cultured for a further five days.
The drug was added to the culture plate on Day 6 of culture as follows. 8 point compound serial dilutions were generated in DMSO at a concentration of ×1000 that of the final assay concentration (FAC). Compound solutions were then prepared by adding 999 ul of ‘Assay Neurobasal media’ (as described in above section) to 1 ul of DMSO compound stock. The total amount of the medium was removed from each of the cell plate wells, and […] of ‘Assay Neurobasal media’ was added followed by […] of compound solution. The final DMSO concentration was 0.1%. […]
Cell survival was evaluated using an Alamar assay according to the following procedure. […]
Measurement of fluorescence intensity for each well was the carried out at 540/590 nm using a Pherastar plus plate reader (BMG labtech). […]
Human/Rat β Amyloid (42) ELISA Kit Wako (#290-62601) and Human/Rat P Amyloid (40) ELISA Kit Wako (#294-62501) from Wako Pure Chemical Industries, Ltd. were used for Aβ ELISA. […] The results were shown as percentage of the control groups and IC50 values for each compound were determined using four parameter logistic fit model using the XLFIT5 software package (IDBS).

Aβ40 = experiment: Amyloid detection: Aβ40 in rat brain and CSF after oral dosing (Wako ELISA); assay type: in vivo, Sprague Dawley rat; conditions: 10 mg/kg p.o.
Procedure: Male Sprague Dawley rats were acquired from Charles River UK Ltd. (Margate, UK) and housed according to UK Home Office guidelines. Drugs were made up to the appropriate concentrations in 0.5% methyl cellulose. Animals were dosed orally (2 mL/kg) by gavage at the doses outlined in Tables 1 to 4 below. At the time points post-dosing, specified in the Tables 1 to 4 below the animals were administered an i.p. injection of sodium pentobarbitone (approximately 330 mg/kg for terminal anaesthesia). Using a guillotine, the animals were decapitated and trunk blood collected into 15 ml Falcon tubes containing 100 IU heparin. Blood was vortexed followed by centrifugation at 6000 rpm, 4° C. for 5 minutes. Plasma was collected for DMPK and ELISA assays and stored at −80° C. until use. Brains were dissected out and divided along the midline, weighed and stored at −80° C. until further use. Amyloid Detection 100 ml of chilled 0.2% diethyl amine (DEA) in 50 mM NaCl (pH 10) was freshly prepared and 1 ml/25 mg brain tissue was added to each hemisphere (i.e. 40× brain volume). The brains were immediately homogenized using a Polytron PT 1200 for 1.5 minutes and samples left to incubate on ice for one hour after homogenisation. 3 ml of the homogenate was transferred to a polyallomer tube (Beckman #362333) and spun at 133000×g (55,000 rpm) for 45 min at 4° C. The supernatant was then neutralised to pH 8-8.3 by adding 1/10 volume 0.5M Tris/HCl, pH 6.8. The samples can be used fresh or snap frozen on dry-ice and stored at −80° C. until required for analysis The Wako Aβ40 ELISA kit (Code No. 294-62501) uses the monoclonal antibody BNT77, raised against epitope Aβ(11-28) and the monoclonal antibody BA27, which specifically detects the C-terminal portion of Aβ40. This kit is used for the quantitative determination of human or rat Aβ(1-40) and also N-terminally truncated Aβ40 species (Aβ(x-40)) in biological matrices such as tissue culture medium, tissue homogenate, CSF and plasma. For analysis, plasma and brain samples are diluted 1:1 with the standard diluent contained in the kit and CSF samples are diluted 1:8 with the standard diluent contained in the kit. The assay is carried out according to manufacturers instructions and samples are analysed in duplicate. Data is analysed using Microsoft Excel 2003 and statistical analysis is carried out using Genstat 9th Edition.

[2] = Aβ ELISA, rat primary cortical neurons, Aβ species (x-40 or x-42) not given, read-out: IC50

Row | Compound | IC50 [1, 2] | reduction of Aβ40 in the CSF (Aβ40; 4 hours) | reduction of Aβ40 in the brain (Aβ40; 4 hours) | reduction of Aβ40 in the CSF (Aβ40; 6 hours) | reduction of Aβ40 in the brain (Aβ40; 6 hours) | IC50 ([1]; Rattus norvegicus)
1 | COc1cnc(C(=O)Nc2cc(F)c(F)c([C@]34CO[C@H](CF)[C@H]3CSC(N)=N4)c2)cn1 [Example 4, N-(3-((4aS,5S,7aS)-2-amino-5-(fluoromethyl)-4a,5,7,7a-tetrahydro-4H-furo[3,4-d][1,3]thiazin-7a-yl)-4,5-difluorophenyl)-5-methoxypyrazine-2-carboxamide] | 12 nM | 67% | 51% | 63% | 42% | –
2 | COc1cnc(C(=O)Nc2ccc(F)c([C@]34CO[C@H](C(F)F)[C@H]3CSC(N)=N4)c2)cn1 [Example 3, N-(3-((4aS,5S,7aS)-2-amino-5-(difluoromethyl)-4a,5,7,7a-tetrahydro-4H-furo[3,4-d][1,3]thiazin-7a-yl)-4-fluorophenyl)-5-methoxypyrazine-2-carboxamide] | 4 nM | 75% | 58% | 71% | 61% | –
3 | COc1cnc(C(=O)Nc2ccc(F)c([C@]34CO[C@H](CF)[C@H]3CSC(N)=N4)c2)cn1 [Example 2, N-(3-((4aS,5S,7aS)-2-amino-5-(fluoromethyl)-4a,5,7,7a-tetrahydro-4H-furo[3,4-d][1,3]thiazin-7a-yl)-4-fluorophenyl)-5-methoxypyrazine-2-carboxamide] | – | 85% | 63% | 69% | 65% | 4 nM

Source: patent US9175013B2, “Fused aminodihydrothiazine derivatives” (Eisai R&D Management Co., Ltd., priority 2011, dated 2015)
